Data as given in PubChem BioAssay AID624491 (Broad Institute, 2012).

Test system: D54 ERlucT glycosylation luciferase reporter, luminescence, 24 h
Assay: N-linked glycosylation inhibitors, luciferase reporter, dose response, D54 ERlucT cells, luminescence, cherry-picks (AID 624491);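 also: signal gain reflects blocked N-linked glycosylation of a luciferase reporter; actives raise luciferase signal so AC26 marks activators of the reporter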

| SMILES | AC26 [nM] |
| --- | --- |
| Cc1ccc(CC(=O)NCc2ccc(F)cc2)cc1 | 824 |
| COc1ccc(S(=O)(=O)Nc2cc3c(cc2C(C)=O)OCO3)cc1 | 5560 |
| COc1cccc(-c2cnc3c(NC=O)cc(-c4cc(C)c(O)c(C)c4)cn23)c1 | 2140 |
| COC(=O)c1ccc(C(=O)NC2CCCc3c2cnn3-c2ccccc2F)nc1 (stereo unspecified) | 4140 |
| Cc1ccc2nc3c(cc(C(N)=S)c(=N)n3CCCOC(C)C)c(=O)n2c1 | 1140 |
| COc1ccc(S(=O)(=O)NCc2ccccn2)cc1NC(=O)c1ccccc1 | 234 |
| Cn1c(=O)c([N+](=O)[O-])c(-n2ccnc2)c2ccccc21 | 4170 |
| COc1cccc(C2=NOC(C(=O)NCc3ccccc3)C2)c1 (stereo unspecified) | 73.2 |
| Cc1ccc(C(=O)c2cc([N+](=O)[O-])ccc2N2CCOCC2)cc1C | 168 |
| Nc1ccc2nc(-c3ccccc3)c(-c3ccccc3)nc2c1 | 1480 |
| CCc1nnc2n1N=C(c1ccc(OC)cc1)CS2 | 6840 |
| Cc1ccc(C(=O)c2coc3c2C(=O)C(=O)c2ccccc2-3)cc1 | 4630 |
| Cc1ccc(Oc2ccc(S(=O)(=O)N3CCOCC3)cc2C(N)=O)c(-n2nc3ccccc3n2)c1 | 2770 |
| Cc1ccc(-c2nc(NCCCN(C)C)c3ccccc3n2)cc1 | 5650 |
| CCN(CCCNC(=O)CCCOc1cc(=O)n(C)c2ccccc12)Cc1ccccc1 | 3420 |
| COc1ccc(NC(=O)c2cc3c(=O)n(C)c4ccccc4c3n2C)cc1OC | 2940 |
| CNc1ccc(Br)cc(C(=O)/C=C/c2ccc(Cl)cc2Cl)c1=O | 8890 |
| CCc1nc2ccc(C(=O)NCCc3c[nH]c4ccccc34)cn2c1N(C=O)CCC(C)C | 343 |
| O=c1[nH]c(=O)n([C@H]2C[C@H](O)[C@@H](CO)O2)cc1Br | 1690 |
| CC1(C(=O)NCCc2ccccc2)Cc2c(-c3ccc4c(c3)OCO4)ccnc2O1 (stereo unspecified) | 3160 |
| O=C(NCc1ccccc1)C(=O)NCC1COc2ccccc2O1 (stereo unspecified) | 13000 |
| COc1cccc(NC(=O)CCCOc2cc(=O)n(C)c3ccccc23)c1 | 4130 |

| SMILES | AC26 [nM] |
| --- | --- |
| NC(N)=N/N=C/c1ccc2cccc(OCc3ccccc3)c2n1 | 4150 |
| Cc1ccnc(NC(=O)CCCOc2cc(=O)n(C)c3ccccc23)c1 | 14900 |
| COc1cc2c3c(cccc3c1)C(=O)N(CCN1CCCC1)C2=O | 200 |
| CCOc1cc(N2CCOCC2)c(OCC)cc1NC(=O)c1[nH]c(C)c(C(C)=O)c1C | 1620 |
| O=C(Nc1c2ccccc2nc2ccccc12)C(Cl)(Cl)Cl | 3340 |
| COc1ccc(Nc2oc(-c3ccc(Cl)cc3)nc2C#N)cc1 | 348 |
| COc1ccc2nc(C)cc(Nc3ccc(N4CCN(C)CC4)cc3)c2c1 | 694 |
| CC(=O)Nc1cccc(-c2ccnc3c2CC(C)(C(=O)NCCC(F)(F)F)O3)c1 (stereo unspecified) | 4320 |
| COc1ccc(CC(=O)N(Cc2ccccc2)c2ccc(C)cc2)cc1S(=O)(=O)N1CCOCC1 | 1160 |
| CCNc1ccc(Br)cc(C(=O)/C=C/c2ccc(Cl)cc2)c1=O | 6710 |
| Cc1cc(Cl)ccc1OCCCC(=O)NO | 2730 |
| O=S(=O)([N-]c1nc2ccccc2nc1-n1cc[n+](Cc2ccccc2)c1)c1ccccc1 | 520 |
| CCOC(=O)COc1cccc2c(=O)n(CC(=O)NCc3ccccc3)ccc12 | 2540 |
| Cn1c(=O)[nH]c(=O)c2c1nc(SCC(N)=O)n2Cc1cccc(Br)c1 | 660 |
| COc1ccccc1N1CCN(C(=O)c2oc3ccccc3c2C)CC1 | 8000 |
| NC(=O)CC(NC(=O)Cc1ccc(Cl)cc1)c1ccc(NC2CCCC2)c([N+](=O)[O-])c1 (stereo unspecified) | 1840 |
| O=C(NC(=C(Cl)Cl)S(=O)(=O)c1ccc(Cl)cc1)c1ccccc1 | 594 |
| COc1ccc(Nc2cc(C)nc3ccc(OC)cc23)cc1 | 1830 |
| CCN(CCCNC(=O)COc1cc(=O)n(CC)c2ccccc12)Cc1ccccc1 | 2530 |
| Cn1cnc(Sc2ncnc3nc[nH]c23)c1[N+](=O)[O-] | 1140 |
| CCOC(=O)c1[nH]c2c(c1-c1ccccc1)C(=O)CC(c1ccccc1)C2 (stereo unspecified) | 1480 |
| C[C@H](CO)N1C[C@H](C)[C@@H](CN(C)S(=O)(=O)c2ccccc2)Oc2c(NC(=O)Cc3ccccc3)cccc2C1=O | 3400 |

| SMILES | AC26 [nM] |
| --- | --- |
| Cc1ccccc1NC(=O)Cn1nnc(C(=O)NCc2ccco2)c1N | 1770 |
| COc1ccc(-c2nnc(SCC(=O)Nc3ncc(C)s3)n2-c2ccccc2)cc1OC | 1050 |
| CC(C)n1c(/C=C/[C@H](O)C[C@H](O)CC(=O)O)c(-c2ccc(F)cc2)c2ccccc21 | 77.8 |
| O=C(Nc1ccccc1N1CCOCC1)c1ccc2nc[nH]c2c1 | 1130 |
| NC(=O)CC(NC(=O)Cc1ccc(Cl)cc1)c1ccc(NC2CCN(Cc3ccccc3)CC2)c([N+](=O)[O-])c1 (stereo unspecified) | 480 |
| COc1ccc2c(c1)OC[C@H]1[C@H]2N2C(=O)c3cc(Br)ccc3NC(=O)[C@@]2(C)[C@H]1c1ccccc1 | 976 |
| Fc1ccc(CSc2ccc3nnc(-c4cccnc4)n3n2)cc1 | 403 |
| CN(C)Cc1c(C(=O)N/N=C/c2ccccc2OCc2c(F)cccc2Cl)nnn1-c1nonc1N | 4210 |
| Cn1c(=O)[nH]c(=O)c2c1nc(N/N=C/c1cccnc1)n2Cc1ccc(Cl)cc1 | 1630 |
| Nc1c(C(=O)Nc2ccc(S(=O)(=O)N3CCCC3)cc2)sc2nc3ccc(OC(F)(F)F)cc3cc12 | 1160 |
| COC(=O)c1cn(C(=O)c2cccc3ccccc23)c2ccccc12 | 928 |
| CC(Nc1nc(-c2ccccc2O)nc2ccccc12)c1ccccc1 (stereo unspecified) | 65.6 |
| O=C(CCl)N1c2ccccc2Sc2c1ccc1ccccc21 | 257 |
| COc1ccccc1-c1nnc2sc(-c3cc4ccccc4o3)nn12 | 63.7 |
| Clc1cccc(Cl)c1Cn1cnc2c(NCc3ccco3)ncnc21 | 17300 |
| COc1ccccc1-n1cnc2cc(NCc3ccco3)ccc21 | 1510 |
| Cc1cccc(C)c1OCCNC(=O)C(=O)NCc1ccco1 | 1710 |
| C=CCn1c(SCc2c(C)noc2C)nc2ccccc2c1=O | 163 |
| Nc1[nH]nc2nc(NCc3ccccc3)c3c(c12)CCN(Cc1ccccc1)C3 | 1030 |
| COc1ccc2c(c1)CCc1c(C(=O)Nc3cc(C)n(Cc4ccc(Cl)cc4)n3)noc1-2 | 3370 |
| CCOc1ccc(NC(=O)C(=O)NCCN2CCN(S(=O)(=O)c3ccc(C)cc3)CC2)cc1 | 4890 |
| C=C(C)Cn1c2ccc(NC(=O)CCc3cccc(Cl)c3)cc2c(=O)n1C | 7490 |

| SMILES | AC26 [nM] |
| --- | --- |
| O=C(COc1ccccc1CNCc1ccccc1)Nc1ccccc1 | 850 |
| COC(=O)c1ccccc1NC(=O)Cn1c(-c2nonc2N)nc2ccccc21 | 120 |
| COc1cc(OC)cc(C(=O)N/N=C/c2ccc(OC)c(COc3ccc(F)cc3)c2)c1 | 2250 |
| O=C1[C@H]2[C@@H](c3ccc(F)cc3)N3C(=O)N(c4cccc(Cl)c4)C(=O)[C@@]3(Cc3ccccc3)[C@H]2C(=O)N1C1CCCCC1 | 16.4 |
| C[C@H](O)[C@@H]1CN2CCc3c([nH]c4ccccc34)[C@@H]2C[C@@H]1N(C)C(=O)c1ccco1 | 408 |
| Cn1c(-c2ccccc2)c(/C=N/NC(=O)c2cccnc2)c2ccccc21 | 247 |
| CCOc1ccccc1N1CCN(C(=O)c2cc3ccccc3cc2OC)CC1 | 3440 |
| CCN1C(=O)c2cccc3c(S(=O)(=O)Nc4ccccc4OC)ccc1c23 | 4240 |
| COc1ccc2c(c1)C(=O)N1[C@H]3c4cc(Cl)ccc4OC[C@@H]3[C@H](c3ccccc3)[C@]1(C)C(=O)N2 | 1010 |
| CC(=O)Nc1ccc(-c2ccnc3c2CC(C(=O)NCc2cccc(Cl)c2)O3)cc1 (stereo unspecified) | 540 |
| CN(C)c1ccc(CNC(=O)C2(C)Cc3c(-c4ccc5c(c4)OCO5)ccnc3O2)cc1 (stereo unspecified) | 2630 |
| O=C(Nc1cccc(-c2cn3ccccc3n2)c1)c1cccc(Cl)c1 | 1750 |
| COc1cc(C(=O)N/N=C(\C)c2ccc3c(c2)OCO3)cc(OC)c1OC | 1260 |
| CN(C)CCCNc1cc(-c2ccccc2)nc2cc(-c3cccc(F)c3)nn12 | 5210 |
| CCOc1ccccc1NC(=O)CN(c1ccc(OC)cc1)S(=O)(=O)c1c(C)noc1C | 4150 |
| CC(C)/C=C1\CC/C(=C\c2cccnc2)C1=O | 4840 |
| Cc1cc(C)c(NC(=O)CSc2nc(COc3ccccc3)nc3ccccc23)c(C)c1 | 5220 |
| Cc1cccn2c(=O)c3cc(C(=O)NCCN4CCOCC4)c(=N)n(CCc4ccccc4)c3nc12 | 8760 |
| COC(=O)c1cc(=O)n(-c2ccc(F)cc2)c(=Nc2ccc(F)cc2)s1 | 4230 |
| COC(=O)CNC(c1ccccc1)c1cc(Br)ccc1NC(=O)CCN1CCOCC1 (stereo unspecified) | 4810 |
| Cc1cc(Br)cc2c(C(=O)Nc3c(C)n(C)n(-c4ccccc4)c3=O)cc(-c3cccs3)nc12 | 3650 |
| CC(=O)N1N=C(c2ccc(NS(=O)(=O)c3ccccc3)cc2)CC1c1ccco1 (stereo unspecified) | 912 |

| SMILES | AC26 [nM] |
| --- | --- |
| COc1cc2c(cc1OC)CN(C(=O)c1ccc3nc[nH]c3c1)CC2 | 6320 |
| COc1ccc(C(=O)C=Cc2ccc(OCc3ccccc3)c(OC)c2)cc1OC | 2690 |
| CCOc1ccc(OCC(=O)N(CCC2=CCCCC2)c2c(N)n(Cc3ccccc3)c(=O)[nH]c2=O)cc1 | 4380 |
| COc1cc2c(cc1OC)C(c1cccs1)N(C(=O)c1ccncc1)CC2 (stereo unspecified) | 3030 |
| CCOc1cc(-c2c(C#N)c(N)nc3c2CCc2ccccc2-3)ccc1O | 9010 |
| O=C(CC1Sc2ccccc2NC1=O)NNc1ccc(Cl)c(Cl)c1 (stereo unspecified) | 2840 |
| Cc1cccn2c(=O)c3cc(C(=O)NCc4ccco4)c(=N)n(CCc4ccccc4)c3nc12 | 1170 |
| O=C(Nc1ccc2oc(-c3cccnc3)nc2c1)c1ccc([N+](=O)[O-])o1 | 1130 |
| CCOc1ccc(Nc2c3ccccc3nc3ccccc23)cc1 | 365 |
| O=C(Nc1cc(Cl)ccc1N1CCOCC1)c1ccc(N2CCCC2=O)cc1 | 108 |
| N#Cc1c(NCCN)nc(-c2ccco2)c2c1CCCC2 | 1730 |
| CCc1ccc(N2CC(C(=O)Nc3ccccc3N3CCCC3)CC2=O)cc1 (stereo unspecified) | 5370 |
| CC1(C(=O)NCc2ccco2)Cc2c(-c3cccc(C(F)(F)F)c3)ccnc2O1 (stereo unspecified) | 7710 |
| Cc1ccc(C(=O)NC(=C(Cl)Cl)S(=O)(=O)c2ccc(Cl)cc2)cc1 | 3660 |
| CCOc1ccc(S(=O)(=O)NCc2ccccn2)cc1NC(=O)c1ccccc1F | 593 |
| COc1ccc(-n2c(=S)[nH]c3cc(C(=O)Nc4ccc(C)c(F)c4)ccc3c2=O)c(OC)c1 | 9690 |
| Cc1ccc2c(c1)C(=O)N1[C@H]3c4cc(C)ccc4OC[C@@H]3[C@H](c3ccccc3)[C@]1(C)C(=O)N2 | 26.4 |
| Cc1ccc(C(=O)N2CCC(C(=O)Nc3cccc([N+](=O)[O-])c3)CC2)cc1 | 804 |
